In patent US9593149B2, “Amylin and calcitonin receptor agonist” (Novo Nordisk A/S, priority 2014, dated 2017):
Values after ≈ are worked out from the molar mass of the structure shown. Each block holds one molecule with its values, some of them ahead of it. Numbered stars: 1 amine (or outer) side, 2 acyl side, 3 side chain; on linkers, the order of the positions; unused ones are H or OH. Peptide text beside a SMILES is read from it. * marks the point of attachment. C18 diacid = O=C(O)CCCCCCCCCCCCCCCCC(=O)*; γGlu = O=C(O)[C@H](CCC(=O)[*:2])N[*:1]; C14 diacid = O=C(O)CCCCCCCCCCCCC(=O)*; AEEA = NCCOCCOCC(=O)O

How the values were obtained:
Assay (X) pK, T½ in rat = assay type: in vivo, Sprague Dawley rats
Procedure: Assay (X)—pK—Determination of T½ in Rat
Pharmacokinetic (PK) studies rats were conducted in order to determine the T½ of mimylin peptide after i.v. and s.c. administration.
T½ values of the mimylin derivates of the invention is determined by pharmacokinetic studies in Sprague Dawley male rats, from Taconic Europe and the principles of laboratory animal care are followed.
An acclimatisation period of approximately 7 days was allowed before the animals entered the study. At start of the acclimatisation period the rats were in the weight range of 250-400 g.
The studies were conducted in an animal room which was illuminated to give a cycle of approximately 12 hours light and 12 hours darkness. The animals were group housed and had food and water ad lib. The animals were weighed on the days of dosing.
In the present studies the test substances were administered subcutaneously or intravenously in approximately 20 nmol/kg dose. The animals received a single subcutaneous injection to the neck for subtaneous administration or directly into the tail vein for intravenous administration. Each test substance was given to typically three but in some cases two or four animals.
A full plasma concentration-time profile, employing 8-10 sampling points, was obtained from each animal. In example blood samples were collected according to the following schedule: After subcutaneous or intravenous administration:
At each sampling time, 0.08 to 0.10 ml of blood was drawn from each animal. The blood samples were taken in the sublingual vein via venous puncture and the use of a capillary tube.
The blood samples were stabilised with EDTA. Blood samples were kept on ice for max 20 min. before centrifugation. Plasma was separated using centrifugation (i.e. at 4° C., 10 min., 1500G) and was immediately transferred to Micronic tubes or PCR plates. Approximately 40 μl plasma was transferred and was stored at −20° C. until assayed. The plasma samples were assayed for the content of mimylin compound by LCMS
The plasma concentration-time profiles were analysed by a non-compartmental pharmacokinetic analysis (NCA) using Phoenix WinNonlin 6.3 (Pharsight Inc., Mountain View, Calif., USA). NCA was performed using the individual plasma concentration-time profiles from each animal. T½ is the terminal half-life=In2/λz and was determined from λz, the first order rate constant associated with the terminal (log-linear) portion of the curve, estimated by linear regression of time vs. log concentration.

[1] = Assay (IV) determination of solubility; assay type: physicochemical
Procedure: Assay (IV)—Determination of Solubility
The mimylin peptide was dissolved in water at ˜500 nmol/ml and mixed 1:1 with a series of buffers (100 mM glycylglycine pH 3.0, 100 mM glycylglycine pH 4.0, 100 mM glycylglycine pH 5.0, 100 mM bistrispropane pH 6.0, 100 mM bistrispropane pH 6.5, 100 mM bistrispropane pH 7.0, 100 mM bistrispropane pH 7.5, 100 mM bistrispropane pH 8.0).

[2] = target: T1, human calcitonin (a) receptor, BHK570 cells (Homo sapiens, UniProt P30988); assay: Assay (II)b functional CRE-luciferase assay without albumin, human calcitonin receptor; assay type: cell-based; details: Tested without HSA; read-out: hCTR funct. EC50
T1 construct: host or cells: BHK570
T1 sequence (P30988 25-474): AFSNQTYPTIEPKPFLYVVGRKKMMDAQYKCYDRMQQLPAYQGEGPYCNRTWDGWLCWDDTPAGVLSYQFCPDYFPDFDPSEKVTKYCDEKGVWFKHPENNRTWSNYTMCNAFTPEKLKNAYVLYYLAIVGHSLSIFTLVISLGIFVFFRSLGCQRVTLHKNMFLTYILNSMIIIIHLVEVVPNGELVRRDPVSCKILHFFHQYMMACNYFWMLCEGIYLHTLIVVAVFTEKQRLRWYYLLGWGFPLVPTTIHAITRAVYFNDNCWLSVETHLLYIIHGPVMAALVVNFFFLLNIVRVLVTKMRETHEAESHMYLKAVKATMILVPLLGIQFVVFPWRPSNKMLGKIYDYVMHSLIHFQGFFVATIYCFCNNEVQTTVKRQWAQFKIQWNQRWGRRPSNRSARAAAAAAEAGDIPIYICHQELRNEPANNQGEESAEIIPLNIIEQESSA
Source text: (§1) Assay(II)b—Human Calcitonin and Amylin Receptor Assay without Albumin
(§2) 1. Luciferase Assay Outline
(§3) Activation of calcitonin and amylin (co-expression of calcitonin receptor and receptor activity modifying proteins (RAMP)) receptors lead to increased intracellular concentrations of cAMP. Consequently, transcription is activated by promoters containing multiple copies of the cAMP response element (CRE). It is thus possible to measure amylin activity by the use of a CRE luciferase reporter gene introduced into BHK cells also expressing calcitonin or amylin receptors.
(§4) 2. Construction of Calcitonin (a)—and Amylin 3(a)—Receptor/CRE-Luc Cell Line.
(§5) A BHK570 cell line was stably transfected with the human calcitonin receptor and a CRE-responsive luciferase reporter gene (Hollex-1 cell line, obtained from ZymoGenetics described in U.S. Pat. No. 5,622,839). The cell line was further transfected with RAMP-3, using standard methods. This turns the calcitonin receptor into an amylin 3(a) receptor. Methotrexate, Neomycin, and Hygromycin are selection markers for luciferase, the calcitonin receptor, and RAMP-3, respectively. To prepare the batches of frozen cells used in the luciferase assay described in the section below, the cells were cultured in growth medium (DMEM with 10% FBS, 1% Pen/Strep and 1 mM Napyruvate). […] Cells at approximately 80-90% confluence were washed with PBS and loosened from the plates with Versene. After centrifugation (2 min, 1300 rpm, in a Centrion Scientific centriuge C2 series with a BRK 5510 rotor head), the cell pellet was dissolved in 10% DMSO, 30% FBS and 60% growth medium and frozen (−80° C.) until utilization.
(§6) The day before the experiment, BHK calcitonin (a) receptor- or amylin 3(a)-receptor/CRE-luc cells were thawed, washed twice, and seeded in 40 μl growth medium on white 384 well culture plates (4.000 cells/well). On the assay day, the cells were washed 3 times in assay media (Dulbecco media W/o phenol red, 500 ml (Gibco, 11880-028); 0.1% ovalbumin; 10 mM Hepes pH 7.4; 1× Glutamin; 1% Pen/Strep). Then, 30 μl/well of sample diluted in assay buffer was added. After 3 hours of incubation at 37° C. and 5% CO2, the reaction was terminated by adding 30 μl/well SteadyLite Plus™. The plates were shaken at 300 rpm for 5 min at RT. Then, the plates were sealed and incubated at room temperature for 30 minutes. Finally, luminescence was tested on a TopCounter (Packard) in SPC (single photon counting) mode.
(§7) Additional Comment Regarding Use of Data Retrieved Via this Method
(§8) For the same reasons, measurements made in Assay IIa should not be compared in Assay IIb.

[3] = target: T1, human calcitonin (a) receptor, BHK570 cells; assay: Assay (II)a functional CRE-luciferase assay with albumin, human calcitonin receptor; assay type: cell-based; details: Tested with HSA; read-out: hCTR funct. EC50
Source text: Assay(II)a—Human Calcitonin and Amylin Receptor Assay
as §2, §3, §4
A BHK570 cell line was stably transfected with the human calcitonin receptor and a CRE-responsive luciferase reporter gene. The cell line was further transfected with RAMP-3, using standard methods. This turns the calcitonin receptor into an amylin 3(a) receptor. Methotrexate, Neomycin, and Hygromycin are selection markers for luciferase, the calcitonin receptor, and RAMP-3, respectively.
To perform activity assays, BHK calcitonin (a) receptor- or amylin 3(a)-receptor/CRE-luc cells were seeded in white 96 well culture plates at a density of about 20.000 cells/well. […] After incubation overnight at 37° C. and 5% CO2, the growth medium was replaced by 50 μl/well assay medium (DMEM (without phenol red), Glutamax™, 10% FBS, and 10 mM Hepes, pH 7.4). Further, 50 μl/well of standard or sample in assay buffer were added.
After 3 hours incubation at 37° C. and 5% CO2, the assay medium with standard or sample were removed and replaced by 100 μl/well PBS. Further, 100 μl/well LucLite™ was added. The plates were sealed and incubated at room temperature for 30 minutes. Finally, luminescence was tested on a TopCounter (Packard) in SPC (single photon counting) mode.

[4] = target: T2, human amylin receptor (human calcitonin receptor + human RAMP3), BHK tk'ts 13 cells (Homo sapiens, UniProt O60896+P30988); assay: Assay (Va) binding to the human amylin receptor (whole cell); details: read-out: hAmylin-R binding IC50
T2 construct: expressed in transfected cells; host or cells: BHK tk'ts 13
Procedure: The day before the assay the cells were Seeded into Poly-D-Lysin coated 384W Opaque White, BD BioCoat plates (10000 cells/well) and Incubated overnight at 37° C., 5% CO2, 95% humidity.

[5] = target: T3, human amylin 3(a) receptor (human calcitonin receptor + RAMP-3), BHK570 cells (Homo sapiens, UniProt O60896+P30988); assay: Assay (II)b functional CRE-luciferase assay without albumin, human amylin receptor; assay type: cell-based; details: Tested without HSA; read-out: hAmylin-R funct. EC50
T3 construct: host or cells: BHK570
Source text: as §1, §2, §3, §4, §5, §6, §7, §8

T2 sequence (O60896 24-148, one chain of several): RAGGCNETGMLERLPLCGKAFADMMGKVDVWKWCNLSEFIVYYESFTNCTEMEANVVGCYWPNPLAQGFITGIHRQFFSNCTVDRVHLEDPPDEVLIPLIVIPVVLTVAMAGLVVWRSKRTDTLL
T3 sequence (O60896 24-148, one chain of several): as above

half-life (Assay (X) pK, T½ in rat; male, Sprague Dawley, plasma, sc, 20 nmol/kg): 60 min
SMILES: CC(C)C[C@H](NC(=O)[C@H](CCCCN)NC(=O)CNC(=O)[C@H](CC(C)C)NC(=O)[C@@H](NC(=O)[C@@H]1CSSC[C@H](N)C(=O)N[C@@H](CO)C(=O)N[C@@H](CC(N)=O)C(=O)N[C@@H](CC(C)C)C(=O)N[C@@H](CO)C(=O)N[C@@H]([C@@H](C)O)C(=O)N1)C(C)C)C(=O)N[C@@H](CO)C(=O)N[C@@H](CCC(N)=O)C(=O)N[C@@H](CCC(=O)O)C(=O)N[C@@H](CC(C)C)C(=O)N[C@@H](Cc1c[nH]cn1)C(=O)N[C@@H](CCCCN)C(=O)N[C@@H](CC(C)C)C(=O)N[C@@H](CCC(N)=O)C(=O)N[C@H](C(=O)N[C@@H](Cc1ccc(O)cc1)C(=O)N1CCC[C@H]1C(=O)N[C@@H](CCCNC(=N)N)C(=O)N[C@H](C(=O)N[C@@H](CC(N)=O)C(=O)N[C@H](C(=O)NCC(=O)N[C@@H](CO)C(=O)NCC(=O)N[C@H](C(=O)N1CCC[C@H]1C(N)=O)[C@@H](C)O)[C@@H](C)O)[C@@H](C)O)[C@@H](C)O [Salmon calcitonin, reference compound]

Solubility ([1]; pH 3.0): ≧200 μM
Solubility ([1]; pH 4.0): ≧200 μM
Solubility ([1]; pH 5.0): ≧200 μM
Solubility ([1]; pH 6.0): ≧200 μM
Solubility ([1]; pH 6.5): ≧200 μM
Solubility ([1]; pH 7.0): ≧200 μM
Solubility ([1]; pH 7.5): ≧200 μM
Solubility ([1]; pH 8.0): ≧200 μM
PK rat iv T½ (Assay (X) pK, T½ in rat; i.v.): 6 h
PK rat sc T½ (Assay (X) pK, T½ in rat; s.c.): 13 h
SMILES: CC(C)C[C@H](NC(=O)[C@H](C)NC(=O)[C@H](C)NC(=O)[C@@H](NC(=O)[C@H](CO)NC(=O)[C@H](CC(C)C)NC(=O)[C@H](CCC(=O)O)NC(=O)[C@H](CO)NC(=O)[C@H](C)NC(=O)[C@H](CCC(=O)O)NC(=O)COCCOCCNC(=O)COCCOCCNC(=O)COCCOCCNC(=O)COCCOCCNC(=O)CC[C@H](NC(=O)CC[C@H](NC(=O)CCCCCCCCCCCCC(=O)O)C(=O)O)C(=O)O)[C@@H](C)O)C(=O)NCC(=O)N[C@@H](CCCNC(=N)N)C(=O)N[C@@H](CC(C)C)C(=O)N[C@@H](CO)C(=O)N[C@@H](C)C(=O)N[C@@H](CCC(=O)O)C(=O)N[C@@H](CC(C)C)C(=O)N[C@@H](Cc1cnc[nH]1)C(=O)N[C@@H](CCC(=O)O)C(=O)N[C@@H](CC(C)C)C(=O)N[C@@H](C)C(=O)N[C@H](C(=O)N[C@@H](CC(C)C)C(=O)N1CCC[C@H]1C(=O)N[C@@H](CCCNC(=N)N)C(=O)N[C@H](C(=O)N[C@@H](CCC(=O)O)C(=O)N[C@H](C(=O)NCC(=O)N1CCC[C@H]1C(=O)N[C@@H](CCC(=O)O)C(=O)N[C@@H](CO)C(=O)N1CCC[C@H]1C(N)=O)[C@@H](C)O)[C@@H](C)O)[C@@H](C)O [compound 5, [N-terminal(C14 diacid-2xgGlu-4xOEG)]mimylin] ({C14 diacid-γGlu-γGlu-AEEA-AEEA-AEEA-AEEA}-EASELSTAALGRLSAELHELATLPRTETGPESP-NH2)

EC50 [2]: 6 pM
EC50 [3]: 0.028 nM
solubility at 18 h ([1]; bistrispropane buffer, pH 6.5): ≥ 200 µM
solubility at 18 h ([1]; bistrispropane buffer, pH 7.5): ≥ 200 µM
solubility at 18 h ([1]; bistrispropane buffer, pH 6.0): ≥ 200 µM
solubility at 18 h ([1]; bistrispropane buffer, pH 7.0): ≥ 200 µM
solubility at 18 h ([1]; bistrispropane buffer, pH 8.0): ≥ 200 µM
solubility at 18 h ([1]; glycylglycine buffer, pH 3.0): 6 µM (≈ 21.8 µg/mL)
solubility at 18 h ([1]; glycylglycine buffer, pH 5.0): ≥ 200 µM
IC50 [4]: 1.65 nM
EC50 [5]: 0.012 nM
SMILES: CC(C)C[C@H](NC(=O)[C@H](CCCNC(=N)N)NC(=O)CNC(=O)[C@@H](NC(=O)[C@@H](NC(=O)[C@H](C)NC(=O)[C@@H](NC(=O)[C@H](CO)NC(=O)[C@@H](NC(=O)[C@H](CCC(=O)O)NC(=O)[C@H](CO)NC(=O)[C@H](C)NC(=O)CC[C@H](NC(=O)CCCCCCCCCCCCCCCCC(=O)O)C(=O)O)C(C)C)[C@@H](C)O)C(C)C)C(C)C)C(=O)N[C@@H](CO)C(=O)N[C@@H](C)C(=O)N[C@@H](CCC(=O)O)C(=O)N[C@@H](CC(C)C)C(=O)N[C@@H](Cc1c[nH]cn1)C(=O)N[C@@H](CCC(=O)O)C(=O)N[C@H](C(=O)N[C@@H](C)C(=O)N[C@H](C(=O)N[C@@H](CC(C)C)C(=O)N1CCC[C@H]1C(=O)N[C@@H](CCCNC(=N)N)C(=O)N[C@H](C(=O)N[C@@H](CCC(=O)O)C(=O)N[C@H](C(=O)NCC(=O)N[C@@H](CO)C(=O)NCC(=O)N[C@@H](CO)C(=O)N1CCC[C@H]1C(N)=O)[C@@H](C)O)[C@@H](C)O)[C@@H](C)O)C(C)C [compound 102, [N-terminal(C18 diacid-gGlu), des1, 5V, 9V, 10V, 20V, 30S, 31G]mimylin] ({C18 diacid-γGlu}-ASEVSTAVVGRLSAELHEVATLPRTETGSGSP-NH2)
